Data taken from US20140249135A1, “PIM KINASE INHIBITORS AND METHODS OF THEIR USE” (NOVARTIS AG, priority 2007, published 2014).
Like-named read-outs stand apart in the source and are kept apart here.

Assays:
[1] = biological target: Pim3 kinase (Homo sapiens, UniProt Q86V86); assay: Pim3 ATP depletion assay; assay type: biochemical
[2] = system: HEL 92.1.7 cells; assay: Cell proliferation assay (CellTiter-Glo), HEL 92.1.7; assay type: cell-based; settings: Homo sapiens
How it was run: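 CellTiter-Glo luminescence was read after 3-day compound exposure at 37 °C of cells plated at 1000/well in RPMI1640 with 10% FBS. Signal was normalised between DMSO-treated and control-compound-treated wells. EC50 is the concentration giving 50% of maximal effect.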

[3] = biological target: Pim1 kinase (Homo sapiens, UniProt P11309); assay: Pim1 ATP depletion assay; assay type: biochemical;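 further: Luciferase-luciferin luminescence readout of residual ATP after PIM1 transfers phosphate to a peptide substrate, 40 µM ATP added, reaction run to roughly half ATP consumption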
[4] = biological target: Pim2 kinase (Homo sapiens, UniProt Q9P1W9); assay: Pim2 ATP depletion assay; assay type: biochemical;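 further: Luciferase-based luminescent readout of ATP remaining after PIM2 phosphorylates a BAD peptide, final 5 nM enzyme, 4 µM ATP, 10 µM peptide, 2.5% DMSO, run to roughly half ATP consumption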
[5] = biological target: T1, human full length PKCE enzyme (Homo sapiens, UniProt Q02156); assay: In vitro PKCE assay; assay type: biochemical; settings: 10 nM enzyme, 40 uM peptide substrate, 20 uM ATP, KinaseGlo Plus readout; read-out: PKCε IC50
T1 construct: human full length PKCE enzyme purchased from InVitrogen; purchased InVitrogen
T1 sequence (Q02156 1-737): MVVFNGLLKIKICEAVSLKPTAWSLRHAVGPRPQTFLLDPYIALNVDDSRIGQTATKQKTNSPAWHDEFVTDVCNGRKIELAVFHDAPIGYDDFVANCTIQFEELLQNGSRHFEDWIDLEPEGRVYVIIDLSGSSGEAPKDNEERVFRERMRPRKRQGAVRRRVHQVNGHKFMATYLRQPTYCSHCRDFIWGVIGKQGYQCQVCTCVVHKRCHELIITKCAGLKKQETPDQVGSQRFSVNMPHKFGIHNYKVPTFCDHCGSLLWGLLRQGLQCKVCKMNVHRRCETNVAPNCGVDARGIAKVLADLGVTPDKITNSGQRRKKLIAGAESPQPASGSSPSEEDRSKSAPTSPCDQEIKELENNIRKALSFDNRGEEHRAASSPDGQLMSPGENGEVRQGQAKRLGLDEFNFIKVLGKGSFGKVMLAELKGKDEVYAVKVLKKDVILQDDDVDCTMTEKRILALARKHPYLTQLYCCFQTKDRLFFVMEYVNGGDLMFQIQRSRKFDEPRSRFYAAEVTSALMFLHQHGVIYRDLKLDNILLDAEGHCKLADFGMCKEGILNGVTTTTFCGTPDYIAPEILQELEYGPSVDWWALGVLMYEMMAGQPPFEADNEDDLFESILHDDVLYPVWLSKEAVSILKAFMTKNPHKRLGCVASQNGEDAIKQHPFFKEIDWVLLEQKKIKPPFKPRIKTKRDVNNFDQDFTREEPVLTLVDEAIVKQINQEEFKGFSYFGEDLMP

[6] = biological target: KDR kinase (Homo sapiens, UniProt P35968); assay: KDR AlphaScreen assay; settings: KDR IC50 (μM)
[7] = Pim1 ATP depletion assay, read-out: IC50 (μM) PIM1

Sequence of Pim1 kinase (P11309 whole entry): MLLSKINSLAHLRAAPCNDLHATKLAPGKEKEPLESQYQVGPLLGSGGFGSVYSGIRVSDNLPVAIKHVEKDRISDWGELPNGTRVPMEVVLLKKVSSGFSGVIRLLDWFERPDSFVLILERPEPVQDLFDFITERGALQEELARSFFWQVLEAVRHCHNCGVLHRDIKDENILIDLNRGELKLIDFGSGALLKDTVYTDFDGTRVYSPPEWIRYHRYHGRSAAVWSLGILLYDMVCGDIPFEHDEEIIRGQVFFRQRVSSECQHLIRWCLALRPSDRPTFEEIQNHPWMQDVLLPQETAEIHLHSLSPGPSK
Sequence of Pim2 kinase (Q9P1W9 whole entry): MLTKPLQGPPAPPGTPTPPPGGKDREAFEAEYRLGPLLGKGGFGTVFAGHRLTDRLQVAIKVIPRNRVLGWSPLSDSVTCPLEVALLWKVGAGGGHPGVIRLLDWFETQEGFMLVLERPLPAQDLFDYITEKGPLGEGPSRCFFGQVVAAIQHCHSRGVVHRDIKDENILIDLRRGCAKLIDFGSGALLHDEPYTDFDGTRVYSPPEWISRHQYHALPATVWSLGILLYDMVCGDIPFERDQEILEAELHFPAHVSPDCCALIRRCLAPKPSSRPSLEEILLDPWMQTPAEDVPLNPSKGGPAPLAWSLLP
Sequence of KDR kinase (P35968 20-1356): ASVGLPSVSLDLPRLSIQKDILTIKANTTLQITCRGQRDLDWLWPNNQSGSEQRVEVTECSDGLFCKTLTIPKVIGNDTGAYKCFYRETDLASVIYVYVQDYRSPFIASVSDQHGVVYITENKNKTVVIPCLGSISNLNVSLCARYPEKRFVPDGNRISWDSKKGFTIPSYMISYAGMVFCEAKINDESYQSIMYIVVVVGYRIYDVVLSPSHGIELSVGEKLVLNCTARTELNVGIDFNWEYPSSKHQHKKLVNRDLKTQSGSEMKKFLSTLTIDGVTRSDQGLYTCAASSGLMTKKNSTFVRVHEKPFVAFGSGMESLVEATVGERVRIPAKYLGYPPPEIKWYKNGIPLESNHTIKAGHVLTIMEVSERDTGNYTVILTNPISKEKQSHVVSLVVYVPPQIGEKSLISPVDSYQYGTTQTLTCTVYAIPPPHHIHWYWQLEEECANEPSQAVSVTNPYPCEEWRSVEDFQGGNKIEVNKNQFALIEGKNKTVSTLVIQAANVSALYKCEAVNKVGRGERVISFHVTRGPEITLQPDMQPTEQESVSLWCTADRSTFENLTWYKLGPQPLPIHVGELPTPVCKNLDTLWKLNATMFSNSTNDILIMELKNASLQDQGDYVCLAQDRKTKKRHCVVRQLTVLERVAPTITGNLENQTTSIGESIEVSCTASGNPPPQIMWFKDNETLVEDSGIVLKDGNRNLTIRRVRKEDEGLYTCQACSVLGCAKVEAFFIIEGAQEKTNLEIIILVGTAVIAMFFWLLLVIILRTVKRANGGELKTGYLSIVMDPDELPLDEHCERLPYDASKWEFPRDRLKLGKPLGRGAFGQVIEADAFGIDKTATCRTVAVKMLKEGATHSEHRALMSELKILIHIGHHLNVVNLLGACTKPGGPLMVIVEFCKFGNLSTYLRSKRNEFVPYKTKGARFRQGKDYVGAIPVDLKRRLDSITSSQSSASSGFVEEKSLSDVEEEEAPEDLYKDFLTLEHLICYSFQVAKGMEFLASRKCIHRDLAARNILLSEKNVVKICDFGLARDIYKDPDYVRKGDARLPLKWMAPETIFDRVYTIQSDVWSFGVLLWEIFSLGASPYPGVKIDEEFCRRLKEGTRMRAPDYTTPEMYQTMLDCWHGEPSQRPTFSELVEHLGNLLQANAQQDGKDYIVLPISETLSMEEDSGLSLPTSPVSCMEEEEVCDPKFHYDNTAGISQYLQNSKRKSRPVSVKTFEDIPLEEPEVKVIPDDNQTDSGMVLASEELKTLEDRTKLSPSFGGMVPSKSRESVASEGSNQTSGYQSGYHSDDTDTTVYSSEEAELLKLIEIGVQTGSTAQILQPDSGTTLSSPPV

| Compound | IC50 ([1]; read-out: IC50 (μM) PIM3) [µM] | EC50 ([2]; read-out: EC50 (μM) HEL 92.1.7) [µM] | IC50 [3] [µM] | IC50 ([4]; read-out: IC50 (μM) PIM2) [µM] | IC50 [5] [nM] | IC50 [6] [µM] | IC50 [3, 7] [µM] | IC50 ([1]; read-out: PIM3 IC50) [µM] | EC50 ([2]; read-out: HEL 92.1.7 EC50) [µM] | IC50 ([3]; Pim1 ATP depletion assay, read-out: PIM1 IC50) [µM] | IC50 ([4]; read-out: PIM2 IC50) [µM] |
| --- | --- | --- | --- | --- | --- | --- | --- | --- | --- | --- | --- |
| Nc1nccnc1C(=O)Nc1cnccc1N1CCCCC1 [Example 123, 3-amino-N-(4-piperidin-1-yl-pyridin-3-yl)pyrazine-2-carbox-amide] | < 1 | < 1 | < 1 | 1 to 10 | < 1000 | 1 to 10 | – | – | – | – | – |
| Nc1nccnc1C(=O)Nc1[nH]c(=O)ncc1N1CCCCC1 [Example 130, 3-amino-N-(2-oxo-5-piperidin-1-yl-2,3-dihydropyrimidin-4-yl)-pyrazine-2-carboxamide] | < 1 | 5 to 10 | – | < 1 | < 1000 | 1 to 10 | < 1 | – | – | – | – |
| Nc1nc(N)c(C(=O)Nc2[nH]c(=O)ncc2N2CCCCC2)nc1Cl [Example 131, 3,5-diamino-6-chloro-N-(2-oxo-5-piperidin-1-yl-2,3-dihydro-pyrimidin-4-yl)pyrazine-2-carboxamide] | < 1 | < 1 | – | < 1 | > 25000 | < 1 | < 1 | – | – | – | – |
| Nc1nc(N)c(C(=O)Nc2[nH]c(=O)ncc2N2CCC(C(F)(F)F)CC2)nc1Cl [Example 159, 3,5-diamino-6-chloro-N-{2-oxo-5-[4-(trifluoromethyl)piperidin-1-yl]-2,3-dihydropyrimidin-4-yl}pyrazine-2-carboxamide] | < 1 | 5 to 10 | – | < 1 | > 25000 | < 1 | < 1 | – | – | – | – |
| Nc1nc(N)c(C(=O)Nc2[nH]c(=O)ncc2N2CCC(F)(F)CC2)nc1Cl [Example 161, 3,5-diamino-6-chloro-N-[5-(4,4-difluoropiperidin-1-yl)-2-oxo-2,3-dihydropyrimidin-4-yl]-pyrazine-2-carboxamide] | < 1 | > 10 | – | < 1 | > 25000 | < 1 | < 1 | – | – | – | – |
| Nc1cccnc1C(=O)Nc1ccncc1N1CCCC(N)C1 (stereo not shown) [Example 174, 3-amino-N-[3-(3-aminopiperidin-1-yl)pyridin-4-yl]pyridine-2-carboxamide] | < 1 | > 10 | – | < 1 | 1000 to 10000 | > 25 | < 1 | – | – | – | – |
| Nc1cccnc1C(=O)Nc1cnccc1N1CCC[C@H](N)C1 [Example 175, 3-amino-N-{4-[(3S)-3-amino-piperidin-1-yl]pyridin-3-yl}-pyridine-2-carboxamide] | < 1 | > 10 | < 1 | < 1 | 1000 to 10000 | > 25 | – | – | – | – | – |
| NCC1CCCN(c2ccncc2NC(=O)c2nc(Cl)c(N)nc2N)C1 (stereo not shown) [Example 182, 3,5-diamino-N-{4-[3-(amino-methyl)piperidin-1-yl]pyridin-3-yl}-6-chloropyrazine-2-carboxamide] | < 1 | < 1 | – | < 1 | 1000 to 10000 | 1 to 10 | < 1 | – | – | – | – |
| Nc1nc(N)c(C(=O)Nc2cnccc2N2CCCC(N)C2)nc1Cl (stereo not shown) [Example 183, 3,5-diamino-N-[4-(3-amino-piperidin-1-yl)pyridin-3-yl]-6-chloropyrazine-2-carboxamide] | < 1 | < 1 | – | < 1 | 10000 to 25000 | 1 to 10 | < 1 | – | – | – | – |
| NCC1CCCN(c2ccncc2NC(=O)c2nccnc2N)C1 (stereo not shown) [Example 184, 3-amino-N-{4-[3-(aminomethyl)-piperidin-1-yl]pyridin-3-yl}pyrazine-2-carboxamide] | < 1 | < 1 | < 1 | 1 to 10 | < 1000 | 10 to 25 | – | – | – | – | – |
| NCCC(=O)N1CCN(c2ccncc2NC(=O)c2nc(Cl)c(N)nc2N)CC1 [Example 185, 3,5-Diamino-6-chloro-pyrazine-2-carboxylic acid {4-[4-(3-amino-propionyl)-piperazin-1-yl]-pyridin-3-yl}-amide] | < 1 | < 1 | – | < 1 | 1000 to 10000 | 1 to 10 | < 1 | – | – | – | – |
| Nc1nccnc1C(=O)Nc1[nH]c(=O)ncc1N1CCCC(N)C1 (stereo not shown) [Example 235, 3-amino-N-[5-(3-aminopiperidin-1-yl)-2-oxo-2,3-dihydro-pyrimidin-4-yl]pyrazine-2-carboxamide] | < 1 | > 10 | – | < 1 | < 1000 | 10 to 25 | < 1 | – | – | – | – |
| CS(=O)(=O)c1cccc(-c2ccc(N)c(C(=O)Nc3cnccc3N3CCC[C@H](N)C3)n2)c1 [Example 320] | < 1 | > 10 | – | < 1 | 10000 to 25000 | > 25 | < 1 | – | – | – | – |
| N#Cc1ccccc1-c1ccc(N)c(C(=O)Nc2cnccc2N2CCC[C@H](N)C2)n1 [Example 332, 3-amino-6-(2-cyano-phenyl)-pyridine-2-carboxylic acid ((S)-3-amino-3,4,5,6-tetra-hydro-2H-[1,4′]bipyridinyl-3′-yl)-amide] | < 1 | 1 to 5 | – | < 1 | 1000 to 10000 | > 25 | < 1 | – | – | – | – |
| Cc1ccc(F)c(-c2ccc(N)c(C(=O)Nc3cnccc3N3CCC[C@H](N)C3)n2)c1 [Example 333, 3-amino-6-(2-fluoro-5-methyl-phenyl)-pyridine-2-carboxylic acid ((S)-3-amino-3,4,5,6-tetrahydro-2H-[1,4′]bi-pyridinyl-3′-yl)-amide] | < 1 | 1 to 5 | – | < 1 | 10000 to 25000 | > 25 | < 1 | – | – | – | – |
| Cc1ccccc1-c1nc(C(=O)Nc2cnccc2N2CCCC(N)C2)c(N)nc1N (stereo not shown) [Example 340, 3,5-diamino-6-o-tolyl-pyrazine-2-carboxylic acid (3-amino-3,4,5,6-tetrahydro-2H-[1,4′]bipyridinyl-3′-yl)-amide] | < 1 | 1 to 5 | – | < 1 | 1000 to 10000 | 10 to 25 | < 1 | – | – | – | – |
| Nc1ncc(-c2cncnc2)nc1C(=O)Nc1cnccc1N1CCCC(N)C1 (stereo not shown) [Example 357, 3-amino-6-pyrimidin-5-yl-pyrazine-2-carboxylic acid (3-amino-3,4,5,6-tetrahydro-2H-[1,4′]bipyridinyl-3′-yl)-amide] | < 1 | 1 to 5 | – | < 1 | 1000 to 10000 | – | < 1 | – | – | – | – |
| Nc1ncc(-c2ccccc2F)nc1C(=O)Nc1[nH]c(=O)ncc1N1CCCC(N)C1 (stereo not shown) [Example 401, 3-amino-6-(2-fluoro-phenyl)-pyrazine-2-carboxylic acid [5-(3-amino-piperidin-1-yl)-2-oxo-2,3-dihydro-pyrimidin-4-yl]-amide] | < 1 | 5 to 10 | – | < 1 | < 1000 | – | < 1 | – | – | – | – |
| Nc1ncc(-c2ccccc2Cl)nc1C(=O)Nc1[nH]c(=O)ncc1N1CCCC(N)C1 (stereo not shown) [Example 402, 3-amino-6-(2-chloro-phenyl)-pyrazine-2-carboxylic acid [5-(3-amino-piperidin-1-yl)-2-oxo-2,3-dihydro-pyrimidin-4-yl]-amide] | < 1 | 5 to 10 | – | < 1 | 1000 to 10000 | – | < 1 | – | – | – | – |
| COc1ccc(F)cc1-c1ccc(N)c(C(=O)Nc2cnccc2N2CCC[C@H](N)C2)n1 [Example 427, 3-amino-6-(5-fluoro-2-methoxy-phenyl)-pyridine-2-carboxylic acid ((S)-3-amino-3,4,5,6-tetra-hydro-2H-[1,4′]bipyridinyl-3′-yl)-amide] | < 1 | 1 to 5 | – | < 1 | 10000 to 25000 | – | < 1 | – | – | – | – |
| Nc1ncc(-c2ccccc2F)nc1C(=O)Nc1[nH]c(=O)ncc1N1CCCCC1 [Example 592, 3-amino-6-(2-fluoro-phenyl)-pyrazine-2-carboxylic acid (2-oxo-5-piperidin-1-yl-2,3-dihydro-pyrimidin-4-yl)-amide] | – | – | – | – | 1000 to 10000 | – | – | < 1 | < 1 | < 1 | < 1 |
